Source: patent US9624235B2, “Compounds and methods for inhibition of AP endonuclease-1/redox factor-1 (HAPE1) activity” (University of Pittsburgh—Of the Commonwealth System of …, priority 2012, dated 2017)
Read-outs that look alike come from different tables or passages of the source.

Legend:
MOLT-4 = test: NCI 60 cell line growth inhibition; type: cell-based; details: Homo sapiens; MOLT-4 line
T98G cells [1] = test: Long term (10-day) CyQUANT cytotoxicity assay; type: cell-based, human
Protocol: Cytotoxic Effects of APE-1 Inhibitors on Cultured Human Glioblastoma (T98G) Cells. Human glioblastoma cells (T98G) were maintained in growth medium as described above. […] The cells were allowed to attach and grow for 24 h, and then treated with serial dilutions of the drug for 72 h. After treatment, viable cells were measured by an MTS assay using the CellTiter 96 AQueous kit (Promega) as per manufacturer's instructions. […] The cells were allowed to attach and grow for 24 h and treated with serial dilutions of the drug for 240 h. After treatment, viable cells were measured using the CyQUANT cell proliferation assay kit (Invitrogen) as per manufacturer's instructions.
(§1) Toxicity. It was assumed that inhibition of APE-1 activity would be lead to toxicity since genetic deletion of the protein is lethal to cells. […] The toxicities were also determined in combination with the DNA minor groove methylating agent, MeLex. MeLex efficiently and selectively generates N3-methyladenine, which is converted into an abasic site by a BER glycosylase and/or hydrolytic depurination. The T98G cell line is relatively resistant to DNA damaging anticancer agents due to expression of multiple drug resistance proteins and O^6-alkylguanine-DNA alkyltransferase. […] A goal of the development of APE-1 inhibitors is to determine if they can be used to enhance the activity of DNA alkylating agents.

T98G cells [2] = test: Potentiation of MeLex cytotoxicity, short term (72 h) MTS assay; type: cell-based, human
Protocol: Cytotoxic Potentiation of Various DNA Damaging Agents. T98G cells maintained in growth medium were resuspended in fresh growth medium and seeded into 96-well plates at 2000 cells/well (short term cytotoxicity) or 100 cells/well (long term cytotoxicity) as described in the previous section. After 24 h, the cells were treated with serial dilutions of various DNA damaging drugs in absence or presence of APE-1 inhibitors. At the end of the treatment period, cell survival was assayed using CellTiter 96 AQueous or CyQUANT kits for the short- and long-term studies respectively.
as §1

APE-1 [3] = target: T1, APE-1 (Homo sapiens (Human), UniProt P27695); test: Molecular beacon assay for APE-1 endonuclease inhibition; type: biochemical
Excerpt: Screening Assays for APE1 Inhibition—The initial screen was designed to look at the effect of potential inhibitors on APE1 repair kinetics. The approach can be used as a high throughput screen by choosing a specific timepoint to monitor. The screen utilizes a molecular beacon with a tetrahydrofuran (THF) abasic site within the stem region of a DNA hairpin that has a fluorophore on the 5′-terminus and a quencher on the 3′-terminus (FIG. 2a). […] An example of the molecular beacon screen and the excision assay are shown in FIGS. 2b,c and 2d, respectively.
Molecular Beacon Assay for Screening of APE-1 Inhibitors. A fluorescence-based molecular beacon assay to measure APE-1 protein activity and inhibition was performed as described previously with some modifications. Tang et al. Neuro Oncol. 13, 471-486 (2011) APE-1 (2 nM) in 10 mM HEPES (pH 7.8) 0.5 mM MgCl, 100 mM NaCl, 100 mM KCl, 0.0005% (w/v) BSA, was incubated with 20 nM 5′-(F)-CGACTXTTGAATTGACACGCCATGTCGATCAATTCAATAGTCG-(D)-3′ [X=tetrahydrofuran (THF) abasic site modification; F, 6-carboxyfluorescein (6-FAM); and D, DABCYL] that forms a hairpin with a 15 base pair stem and a 13 base loop. The THF modification is a known substrate for APE-1 excision. APE-1 mediated cleavage of the phosphodiester backbone at the THF-abasic site led to release of the 5′ 6-FAM (fluorophore) containing pentanucleotide, disrupting the Förster Resonance Energy Transfer (FRET) mediated quenching of the 6-FAM by DABCYL in the native hairpin oligomer. Since the signal was generated by continuous liberation of the fluorophore-labeled excision fragment, progress of this reaction could be monitored in real-time using a Cary Eclipse fluorescence spectrometer (Varian, Palo Alto, Calif.) or a Synergy H1 multi-well plate reader (BioTek, Winooski, Vt.). Reactions were optimized to yield ˜90% substrate turnover in 10 min, and fluorescence intensities measured every 12 s at 495 nm excitation and 520 nm emission. Data from the first 1-3 min of the assays (linear phase) were used to determine rate of substrate turnover (V0). The Michaelis constant (KM) was deduced experimentally, by incubating 2 nM APE-1 protein with 2-500 nM hairpin DNA substrate and measuring V0 —the experimentally observed V0 were analyzed as a function of substrate concentration [S] via non-linear regression using Prism (v.4; GraphPad Software, Inc., La Jolla, Calif.) and the KM was calculated as per the algorithm in the software package. To assay inhibition, 2 nM APE-1 protein was pre-incubated with 0.05-10.00 μM of the candidate inhibitors at 25° C. for 60 min, before initiating the excision assay by addition of hairpin DNA substrate. V0 was calculated at various concentrations of inhibitors and represented as inverse function of increasing inhibitor concentration [I]. […] All assays were carried out in three independent sets to obtain mean data and standard error of mean.
(§2) Screening for APE-1 Inhibitors. […] In this assay, the DNA hairpin substrate has a 6-FAM fluorophore on the 5′-terminus, a DABACYL fluorescence quencher on the 3′-terminus and a THF abasic site located 6 base pairs from the 5′-terminus in the stem region (FIG. 6). APE-1 activity is monitored as an increase in fluorescence due to the release of the 5′-(6-FAM)-GCACT fragment as a function of time. […] In this assay, substrate turnover was calculated from relative intensities of cleaved vs. intact oligomers and correlated with inhibitor concentration.

APE-1 [4] = target: T1, APE-1; test: Gel-based excision assay for APE-1 inhibitors; type: biochemical; details: APE-1 cleaved fragment vs. full length DNA substrate
Protocol: as §2

[5] = system: NCI panel of 60-cell lines; test: NCI 60 cell line growth inhibition; type: cell-based; details: NCI 60 cell lines; read-out: average growth inhibition (GI50) in all the lines

T1 sequence (P27695 whole entry): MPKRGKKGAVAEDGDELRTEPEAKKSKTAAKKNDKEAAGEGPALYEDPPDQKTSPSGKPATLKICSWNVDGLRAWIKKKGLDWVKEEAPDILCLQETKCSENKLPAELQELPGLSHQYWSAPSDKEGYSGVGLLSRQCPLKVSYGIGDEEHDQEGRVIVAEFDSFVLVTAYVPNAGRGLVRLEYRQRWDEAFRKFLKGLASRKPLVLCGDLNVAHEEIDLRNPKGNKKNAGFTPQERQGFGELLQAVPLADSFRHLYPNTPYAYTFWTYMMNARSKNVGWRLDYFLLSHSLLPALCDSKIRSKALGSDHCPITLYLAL

Compound: CCn1c2ccccc2c2cc(/C=N/Nc3cc(C)nc4cc5c(cc34)OCO5)ccc21 [Compound 4]
- GI50 (MOLT-4): 133 nM
- LD50 / toxicity (T98G cells [1]; long term (clonogenic) assay, T98G): 190 nM
- LD10 concentration (T98G cells [1]; long term assay): 0.08 µM
- LD50 of MeLex in the presence of LD10 concentration of inhibitor (T98G cells [2]; 72 h MTS assay): 49 µM
- maximum potentiation of MeLex (T98G cells [2]; short term assay): approximately 5 fold
- Ki (APE-1 [3]; molecular beacon assay, endonuclease activity, read-out: Ki APE-1 endonuclease inhibition): 120 nM
- Ki (APE-1 [3]; molecular beacon screen, read-out: Ki, inhibition curve FIG. 2(c)): 345 nM
- IC50 (APE-1 [4]): 4.1 µM
- GI50 [5]: 4.4 ± 2.6 µM
